Key:
Amaranthus retroflexus [1] = assay: Pre-emergence herbicidal effect; assay type: in vivo; settings: scored visually after 3 weeks
How it was run: (§1)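 Seeds sown in sandy loam in wood-fiber pots and covered with soil; WP or EC formulations applied to the soil surface as aqueous suspension or emulsion at 600 to 800 L/ha water with 0.2% wetting agent. Greenhouse, 3 weeks; damage scored visually versus untreated controls (100% = plants died, 0% = like control).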

Cyperus esculentus = assay: Pre-emergence herbicidal effect; assay type: in vivo; settings: Dosage 320 g/ha, scored visually after 3 weeks
How it was run: as §1

Matricaria inodora = assay: Pre-emergence herbicidal effect; assay type: in vivo; settings: scored visually after 3 weeks
How it was run: as §1

Veronica persica [2] = assay: Pre-emergence herbicidal effect; assay type: in vivo; settings: scored visually after 3 weeks
How it was run: as §1

Viola tricolor [3] = assay: Pre-emergence herbicidal effect; assay type: in vivo; settings: scored visually after 3 weeks
How it was run: as §1

Stellaria media [4] = assay: Post-emergence herbicidal effect; assay type: in vivo; settings: assessed visually after about 3 weeks vs untreated controls
How it was run: (§2)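 Action, expressed in percent from 0 (like controls) to 100 (plants died), is read by eye about 3 weeks after foliar application. Applications use formulated product in water at 600–800 L/ha on one-leaf-stage plants sown in sandy loam.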

Veronica persica [5] = assay: Post-emergence herbicidal effect; assay type: in vivo; settings: assessed visually after about 3 weeks vs untreated controls
How it was run: as §2

Viola tricolor [6] = assay: Post-emergence herbicidal effect; assay type: in vivo; settings: assessed visually after about 3 weeks vs untreated controls
How it was run: as §2

Abutilon theophrasti [7] = assay: Pre-emergence herbicidal effect; assay type: in vivo; settings: scored visually after 3 weeks
How it was run: as §1

Alopecurus myosuroides [8] = assay: Pre-emergence herbicidal effect; assay type: in vivo; settings: scored visually after 3 weeks
How it was run: as §1

Avena fatua = assay: Pre-emergence herbicidal effect; assay type: in vivo; settings: Dosage 320 g/ha, scored visually after 3 weeks
How it was run: as §1

Echinochloa crus-galli [9] = assay: Pre-emergence herbicidal effect; assay type: in vivo; settings: scored visually after 3 weeks
How it was run: as §1

Lolium multiflorum [10] = assay: Pre-emergence herbicidal effect; assay type: in vivo; settings: Dosage 320 g/ha, scored visually after 3 weeks
How it was run: as §1

Polygonum convolvulus [11] = assay: Pre-emergence herbicidal effect; assay type: in vivo; settings: scored visually after 3 weeks
How it was run: as §1

Setaria viridis [12] = assay: Pre-emergence herbicidal effect; assay type: in vivo; settings: scored visually after 3 weeks
How it was run: as §1

Stellaria media [13] = assay: Pre-emergence herbicidal effect; assay type: in vivo; settings: scored visually after 3 weeks
How it was run: as §1

Abutilon theophrasti [14] = assay: Post-emergence herbicidal effect; assay type: in vivo; settings: assessed visually after about 3 weeks vs untreated controls
How it was run: as §2

Alopecurus myosuroides [15] = assay: Post-emergence herbicidal effect; assay type: in vivo; settings: assessed visually after about 3 weeks vs untreated controls
How it was run: as §2

Amaranthus retroflexus [16] = assay: Post-emergence herbicidal effect; assay type: in vivo; settings: assessed visually after about 3 weeks vs untreated controls
How it was run: as §2

Echinochloa crus-galli [17] = assay: Post-emergence herbicidal effect; assay type: in vivo; settings: assessed visually after about 3 weeks vs untreated controls
How it was run: as §2

Ipomoea purpurea = assay: Post-emergence herbicidal effect; assay type: in vivo; settings: assessed visually after about 3 weeks vs untreated controls
How it was run: as §2

Lolium multiflorum [18] = assay: Post-emergence herbicidal effect; assay type: in vivo; settings: assessed visually after about 3 weeks vs untreated controls
How it was run: as §2

Polygonum convolvulus [19] = assay: Post-emergence herbicidal effect; assay type: in vivo; settings: assessed visually after about 3 weeks vs untreated controls
How it was run: as §2

Setaria viridis [20] = assay: Post-emergence herbicidal effect; assay type: in vivo; settings: assessed visually after about 3 weeks vs untreated controls
How it was run: as §2

logP (HCOOH) = assay type: physicochemical; settings: HCOOH
Source text: Table 2 (physicochemical characterization of selected synthesis examples)

Compound: CS(=O)(=O)c1cnc(NC2CCCc3occc32)nc1N (racemic) [compound 13]
- AMARE pre-emergence efficacy (herbicidal activity) (Amaranthus retroflexus [1]; Dosage 320 g/ha): 100%
- CYPES pre-emergence efficacy (herbicidal activity) (Cyperus esculentus): 100%
- MATIN pre-emergence efficacy (herbicidal activity) (Matricaria inodora; Dosage 320 g/ha): 100%
- VERPE pre-emergence efficacy (herbicidal activity) (Veronica persica [2]; Dosage 320 g/ha): 90%
- VIOTR pre-emergence efficacy (herbicidal activity) (Viola tricolor [3]; Dosage 320 g/ha): 100%
- post-emergence efficacy STEME (Stellaria media [4]; 320 g/ha): 80%
- post-emergence efficacy VERPE (Veronica persica [5]; 320 g/ha): 90%
- post-emergence efficacy VIOTR (Viola tricolor [6]; 320 g/ha): 100%

Compound: Cc1cc2c(s1)C(Nc1ncc(C(F)(F)F)c(N)n1)CCC2 (racemic) [compound 55]
- ABUTH pre-emergence efficacy (herbicidal activity) (Abutilon theophrasti [7]; Dosage 80 g/ha): 100%
- ABUTH pre-emergence efficacy (herbicidal activity) (Abutilon theophrasti [7]; Dosage 320 g/ha): 100%
- ALOMY pre-emergence efficacy (herbicidal activity) (Alopecurus myosuroides [8]; Dosage 80 g/ha): 90%
- ALOMY pre-emergence efficacy (herbicidal activity) (Alopecurus myosuroides [8]; Dosage 320 g/ha): 100%
- AMARE pre-emergence efficacy (herbicidal activity) (Amaranthus retroflexus [1]; Dosage 80 g/ha): 100%
- AMARE pre-emergence efficacy (herbicidal activity) (Amaranthus retroflexus [1]; Dosage 320 g/ha): 100%
- AVEFA pre-emergence efficacy (herbicidal activity) (Avena fatua): 100%
- ECHCG pre-emergence efficacy (herbicidal activity) (Echinochloa crus-galli [9]; Dosage 80 g/ha): 100%
- ECHCG pre-emergence efficacy (herbicidal activity) (Echinochloa crus-galli [9]; Dosage 320 g/ha): 100%
- LOLMU pre-emergence efficacy (herbicidal activity) (Lolium multiflorum [10]): 100%
- MATIN pre-emergence efficacy (herbicidal activity) (Matricaria inodora; Dosage 80 g/ha): 100%
- MATIN pre-emergence efficacy (herbicidal activity) (Matricaria inodora; Dosage 320 g/ha): 100%
- POLCO pre-emergence efficacy (herbicidal activity) (Polygonum convolvulus [11]; Dosage 320 g/ha): 90%
- SETVI pre-emergence efficacy (herbicidal activity) (Setaria viridis [12]; Dosage 80 g/ha): 100%
- SETVI pre-emergence efficacy (herbicidal activity) (Setaria viridis [12]; Dosage 320 g/ha): 100%
- STEME pre-emergence efficacy (herbicidal activity) (Stellaria media [13]; Dosage 80 g/ha): 100%
- STEME pre-emergence efficacy (herbicidal activity) (Stellaria media [13]; Dosage 320 g/ha): 100%
- VERPE pre-emergence efficacy (herbicidal activity) (Veronica persica [2]; Dosage 80 g/ha): 100%
- VERPE pre-emergence efficacy (herbicidal activity) (Veronica persica [2]; Dosage 320 g/ha): 100%
- VIOTR pre-emergence efficacy (herbicidal activity) (Viola tricolor [3]; Dosage 80 g/ha): 100%
- VIOTR pre-emergence efficacy (herbicidal activity) (Viola tricolor [3]; Dosage 320 g/ha): 100%
- post-emergence efficacy ABUTH (Abutilon theophrasti [14]; 80 g/ha): 90%
- post-emergence efficacy ABUTH (Abutilon theophrasti [14]; 320 g/ha): 90%
- post-emergence efficacy ALOMY (Alopecurus myosuroides [15]; 80 g/ha): 90%
- post-emergence efficacy ALOMY (Alopecurus myosuroides [15]; 320 g/ha): 90%
- post-emergence efficacy AMARE (Amaranthus retroflexus [16]; 80 g/ha): 90%
- post-emergence efficacy AMARE (Amaranthus retroflexus [16]; 320 g/ha): 100%
- post-emergence efficacy ECHCG (Echinochloa crus-galli [17]; 80 g/ha): 100%
- post-emergence efficacy ECHCG (Echinochloa crus-galli [17]; 320 g/ha): 100%
- post-emergence efficacy PHBPU (Ipomoea purpurea; 80 g/ha): 100%
- post-emergence efficacy PHBPU (Ipomoea purpurea; 320 g/ha): 100%
- post-emergence efficacy LOLMU (Lolium multiflorum [18]; 80 g/ha): 80%
- post-emergence efficacy LOLMU (Lolium multiflorum [18]; 320 g/ha): 90%
- post-emergence efficacy POLCO (Polygonum convolvulus [19]; 80 g/ha): 90%
- post-emergence efficacy POLCO (Polygonum convolvulus [19]; 320 g/ha): 90%
- post-emergence efficacy SETVI (Setaria viridis [20]; 80 g/ha): 90%
- post-emergence efficacy SETVI (Setaria viridis [20]; 320 g/ha): 90%
- post-emergence efficacy STEME (Stellaria media [4]; 80 g/ha): 100%
- post-emergence efficacy STEME (Stellaria media [4]; 320 g/ha): 100%
- post-emergence efficacy VERPE (Veronica persica [5]; 80 g/ha): 90%
- post-emergence efficacy VERPE (Veronica persica [5]; 320 g/ha): 100%
- post-emergence efficacy VIOTR (Viola tricolor [6]; 80 g/ha): 90%
- post-emergence efficacy VIOTR (Viola tricolor [6]; 320 g/ha): 100%
- logP (HCOOH) (logP (HCOOH)): oily; logP (HCOOH): 2.46; 1H NMR (CDCl3, 400 MHZ, δ in ppm): 1.85-2.00 (m, 3H,

Compound: Cc1cc2c(s1)CCCC2Nc1ncc(S(C)(=O)=O)c(N)n1 (racemic) [compound 59]
- ABUTH pre-emergence efficacy (herbicidal activity) (Abutilon theophrasti [7]; Dosage 80 g/ha): 80%
- ABUTH pre-emergence efficacy (herbicidal activity) (Abutilon theophrasti [7]; Dosage 320 g/ha): 100%
- ALOMY pre-emergence efficacy (herbicidal activity) (Alopecurus myosuroides [8]; Dosage 320 g/ha): 80%
- AMARE pre-emergence efficacy (herbicidal activity) (Amaranthus retroflexus [1]; Dosage 80 g/ha): 100%
- AMARE pre-emergence efficacy (herbicidal activity) (Amaranthus retroflexus [1]; Dosage 320 g/ha): 100%
- CYPES pre-emergence efficacy (herbicidal activity) (Cyperus esculentus): 80%
- ECHCG pre-emergence efficacy (herbicidal activity) (Echinochloa crus-galli [9]; Dosage 80 g/ha): 100%
- ECHCG pre-emergence efficacy (herbicidal activity) (Echinochloa crus-galli [9]; Dosage 320 g/ha): 100%
- LOLMU pre-emergence efficacy (herbicidal activity) (Lolium multiflorum [10]): 90%
- MATIN pre-emergence efficacy (herbicidal activity) (Matricaria inodora; Dosage 80 g/ha): 100%
- MATIN pre-emergence efficacy (herbicidal activity) (Matricaria inodora; Dosage 320 g/ha): 100%
- POLCO pre-emergence efficacy (herbicidal activity) (Polygonum convolvulus [11]; Dosage 80 g/ha): 80%
- POLCO pre-emergence efficacy (herbicidal activity) (Polygonum convolvulus [11]; Dosage 320 g/ha): 100%
- SETVI pre-emergence efficacy (herbicidal activity) (Setaria viridis [12]; Dosage 80 g/ha): 80%
- SETVI pre-emergence efficacy (herbicidal activity) (Setaria viridis [12]; Dosage 320 g/ha): 100%
- STEME pre-emergence efficacy (herbicidal activity) (Stellaria media [13]; Dosage 80 g/ha): 100%
- STEME pre-emergence efficacy (herbicidal activity) (Stellaria media [13]; Dosage 320 g/ha): 100%
- VERPE pre-emergence efficacy (herbicidal activity) (Veronica persica [2]; Dosage 80 g/ha): 100%
- VERPE pre-emergence efficacy (herbicidal activity) (Veronica persica [2]; Dosage 320 g/ha): 100%
- VIOTR pre-emergence efficacy (herbicidal activity) (Viola tricolor [3]; Dosage 80 g/ha): 100%
- VIOTR pre-emergence efficacy (herbicidal activity) (Viola tricolor [3]; Dosage 320 g/ha): 100%
- post-emergence efficacy ABUTH (Abutilon theophrasti [14]; 80 g/ha): 20%
- post-emergence efficacy ABUTH (Abutilon theophrasti [14]; 320 g/ha): 20%
- post-emergence efficacy AMARE (Amaranthus retroflexus [16]; 80 g/ha): 60%
- post-emergence efficacy AMARE (Amaranthus retroflexus [16]; 320 g/ha): 90%
- post-emergence efficacy ECHCG (Echinochloa crus-galli [17]; 80 g/ha): 20%
- post-emergence efficacy ECHCG (Echinochloa crus-galli [17]; 320 g/ha): 100%
- post-emergence efficacy PHBPU (Ipomoea purpurea; 80 g/ha): 80%
- post-emergence efficacy PHBPU (Ipomoea purpurea; 320 g/ha): 80%
- post-emergence efficacy SETVI (Setaria viridis [20]; 80 g/ha): 90%
- post-emergence efficacy SETVI (Setaria viridis [20]; 320 g/ha): 90%
- post-emergence efficacy VERPE (Veronica persica [5]; 80 g/ha): 90%
- post-emergence efficacy VERPE (Veronica persica [5]; 320 g/ha): 100%
- post-emergence efficacy VIOTR (Viola tricolor [6]; 80 g/ha): 80%
- post-emergence efficacy VIOTR (Viola tricolor [6]; 320 g/ha): 80%
